# Data taken from US20140011853A1, “SUBSTITUTED 3-(BIPHENYL-3-YL)-8,8-DIFLUORO-4-HYDROXY-1-AZASPIRO[4.5]DEC-3-EN-2-ONES FOR THERAPY” (BAYER INTELLECTUAL PROPERTY GMBH, priority 2011, published 2014).
# pIC50, pKd: −log10 of the molar value. “And” between values parts separate entries of the source, which are not always exact repeats. Equal values may be shown once.
# Legend:
# [1] = tested on: Myzus persicae; experiment: Myzus test (MYZUPE spray treatment); type: in vivo; conditions: for effect (kill of aphids) / pest or weed control at 500 g/ha: 500 g/ha, after 6 days; for pest or weed control at 500 g/ha: read-out: effect (kill of aphids)
# From the text: Disks of Chinese cabbage (Brassica pekinensis) infested by all stages of the green peach aphid (Myzus persicae) are sprayed with an active compound formulation of the desired concentration.
# [2] = tested on: Tetranychus urticae; experiment: Tetranychus test, OP-resistant (TETRUR spray treatment); type: in vivo; conditions: for effect (kill of spider mites) / pest or weed control at 100 g/ha: after 6 days; for pest or weed control at 100 g/ha: read-out: effect (kill of spider mites)
# [3] = tested on: Phaedon cochleariae; experiment: Phaedon test (PHAECO spray treatment); conditions: for effect (kill of beetle larvae): 500 g/ha, after 7 days
# [4] = tested on: Spodoptera frugiperda; experiment: Spodoptera frugiperda test (SPODFR spray treatment); type: in vivo; conditions: 500 g/ha, after 7 days
# [5] = target: T1, human ACC1 (Homo sapiens, UniProt Q13085); experiment: Human ACC1 enzyme assay (ADP-Glo); type: biochemical; conditions: individual measurements; read-out: ACC 1 IC50
# T1 construct: FLAG (C); made in house; host or cells: baculovirus-infected insect cells (Hi5)
# [6] = tested on: human ACC1; experiment: Human ACC1 enzyme assay (ADP-Glo); type: biochemical
# [7] = tested on: KM12; experiment: Tumour cell proliferation, CellTiter-Glo, 96-hour incubation, KM12; type: cell-based; conditions: Homo sapiens, KM12, 96 h; read-out: KM12 IC50
# Method: (§1) In accordance with the invention, the substances were tested in cell-based assays for the ability of the substances of inhibiting tumour cell proliferation after a 96-hour incubation with the substance. Cell viability was tested using the CellTiter-Glo® luminescent cell viability assay (Promega). The cells were sown at a density of 2000-5000 cells/well (depending on the cell line) in 100 μl growth medium on 96-well microtiter plates. For each cell line examined, cells were sown on a separate plate to determine the luminescence at t=0 hours and t=96 hours. After overnight incubation at 37° C., the luminescence values for the t=0 samples were determined. The dose plates for the t=96 hours points in time were treated with substances diluted with growth medium. The cells were then incubated at 37° C. for 96 hours, and the luminescence values for the t=96 hours samples were then determined. For data analysis, the t=0 values were subtracted from the t=96 hours values for treated and untreated samples. The differences in luminescence in percent between substance-treated samples and control values were used to determine the growth inhibition in percent.
# (§2) The substances were tested in the following cell lines which represent the stated indications in an exemplary manner: […]
# [8] = tested on: PC3; experiment: Tumour cell proliferation, CellTiter-Glo, 96-hour incubation, PC3; type: cell-based; conditions: Homo sapiens, PC-3, 96 h; read-out: PC3 IC50
# Method: as §1, §2
# [9] = tested on: H460; experiment: Tumour cell proliferation, CellTiter-Glo, 96-hour incubation, H460; type: cell-based; conditions: Homo sapiens, NCI-H460, 96 h; read-out: H460 IC50
# Method: as §1, §2
# [10] = tested on: MCF7; experiment: Tumour cell proliferation, CellTiter-Glo, 96-hour incubation, MCF7; type: cell-based; conditions: Homo sapiens, MCF7, 96 h; read-out: MCF7 IC50
# Method: as §1, §2
# [11] = Octanol/water distribution coefficient (logP/D), isocratic HPLC method; type: physicochemical; conditions: pH 7.4
# From the text: Assay for Determining the Octanol/Water Distribution Coefficient (logP/D):
# The distribution coefficient octanol/water P or D is a key parameter for estimating membrane penetration and permeability. It is defined as the ratio of the equilibrium concentrations of a substance in the two-phase system octanol/water.
# It is usually stated in form of the decadic logarithm (logP or logD).
# logP describes the distribution behaviour of a substance exclusively present in its neutral form. logD describes the distribution behaviour of a substance at a certain pH; depending on the ionization constant pKa of the substance, some of the substance may be present in ionic form, and some in neutral form.
# The logP/D of the active compounds was determined using an isocratic HPLC method (HPLC=high performance liquid chromatography) (literature: OECD Guideline for Testing of Chemicals No. 117). The method is based on the correlation of the HPLC retention time of the test substance to that of reference substances with known distribution coefficients.
# The test substance was employed as a 10 mM solution in DMSO (DMSO=dimethyl sulphoxide). 10 μl of this solution were made up to 100 μl with a methanol/water mixture in a ratio of 7+3.
# The nine reference substances were dissolved individually in methanol. 100 μl each of the stock solutions were added to an HPLC vial and mixed with 300 μl of water.
# A formamide solution was used to determine the hold-up time. To this end, 7 mg of formamide were dissolved in 10 ml of methanol. 100 μl of this stock solution were mixed with 500 μl of methanol and 200 μl of water.
# All solutions were chromatographed using a flow rate of 1.00 ml/min.
# Injection Protocol: formamide, references, test substance 1, test substance 2, . . . , formamide, references.
# Evaluation of the retention times was carried out in a diode array detector (DAD) at 200-400 nm Via the molecular mass, the identity of the test substance was checked using the downstream mass spectrometer.
# The HPLC run was evaluated using the Waters software Masslynx 4.1.
# The logP/D values were calculated using the software “POW Determination” (proprietary development).
# [12] = Membrane affinity logMA (MA-Transil); type: physicochemical; conditions: buffer pH 7.4
# [13] = target: human ACC2 (Homo sapiens, UniProt O00763); experiment: Human ACC2 enzyme assay (ADP-Glo); conditions: ACC 2 IC50, individual measurements
# [14] = target: human serum albumin (HSA) (Homo sapiens, UniProt P02768); experiment: Protein binding to human serum albumin (HSA-Transil)
# [15] = Tetranychus urticae, 144 h, 100 g/ha
# human ACC2, sequence (O00763 27-2458 limits assumed): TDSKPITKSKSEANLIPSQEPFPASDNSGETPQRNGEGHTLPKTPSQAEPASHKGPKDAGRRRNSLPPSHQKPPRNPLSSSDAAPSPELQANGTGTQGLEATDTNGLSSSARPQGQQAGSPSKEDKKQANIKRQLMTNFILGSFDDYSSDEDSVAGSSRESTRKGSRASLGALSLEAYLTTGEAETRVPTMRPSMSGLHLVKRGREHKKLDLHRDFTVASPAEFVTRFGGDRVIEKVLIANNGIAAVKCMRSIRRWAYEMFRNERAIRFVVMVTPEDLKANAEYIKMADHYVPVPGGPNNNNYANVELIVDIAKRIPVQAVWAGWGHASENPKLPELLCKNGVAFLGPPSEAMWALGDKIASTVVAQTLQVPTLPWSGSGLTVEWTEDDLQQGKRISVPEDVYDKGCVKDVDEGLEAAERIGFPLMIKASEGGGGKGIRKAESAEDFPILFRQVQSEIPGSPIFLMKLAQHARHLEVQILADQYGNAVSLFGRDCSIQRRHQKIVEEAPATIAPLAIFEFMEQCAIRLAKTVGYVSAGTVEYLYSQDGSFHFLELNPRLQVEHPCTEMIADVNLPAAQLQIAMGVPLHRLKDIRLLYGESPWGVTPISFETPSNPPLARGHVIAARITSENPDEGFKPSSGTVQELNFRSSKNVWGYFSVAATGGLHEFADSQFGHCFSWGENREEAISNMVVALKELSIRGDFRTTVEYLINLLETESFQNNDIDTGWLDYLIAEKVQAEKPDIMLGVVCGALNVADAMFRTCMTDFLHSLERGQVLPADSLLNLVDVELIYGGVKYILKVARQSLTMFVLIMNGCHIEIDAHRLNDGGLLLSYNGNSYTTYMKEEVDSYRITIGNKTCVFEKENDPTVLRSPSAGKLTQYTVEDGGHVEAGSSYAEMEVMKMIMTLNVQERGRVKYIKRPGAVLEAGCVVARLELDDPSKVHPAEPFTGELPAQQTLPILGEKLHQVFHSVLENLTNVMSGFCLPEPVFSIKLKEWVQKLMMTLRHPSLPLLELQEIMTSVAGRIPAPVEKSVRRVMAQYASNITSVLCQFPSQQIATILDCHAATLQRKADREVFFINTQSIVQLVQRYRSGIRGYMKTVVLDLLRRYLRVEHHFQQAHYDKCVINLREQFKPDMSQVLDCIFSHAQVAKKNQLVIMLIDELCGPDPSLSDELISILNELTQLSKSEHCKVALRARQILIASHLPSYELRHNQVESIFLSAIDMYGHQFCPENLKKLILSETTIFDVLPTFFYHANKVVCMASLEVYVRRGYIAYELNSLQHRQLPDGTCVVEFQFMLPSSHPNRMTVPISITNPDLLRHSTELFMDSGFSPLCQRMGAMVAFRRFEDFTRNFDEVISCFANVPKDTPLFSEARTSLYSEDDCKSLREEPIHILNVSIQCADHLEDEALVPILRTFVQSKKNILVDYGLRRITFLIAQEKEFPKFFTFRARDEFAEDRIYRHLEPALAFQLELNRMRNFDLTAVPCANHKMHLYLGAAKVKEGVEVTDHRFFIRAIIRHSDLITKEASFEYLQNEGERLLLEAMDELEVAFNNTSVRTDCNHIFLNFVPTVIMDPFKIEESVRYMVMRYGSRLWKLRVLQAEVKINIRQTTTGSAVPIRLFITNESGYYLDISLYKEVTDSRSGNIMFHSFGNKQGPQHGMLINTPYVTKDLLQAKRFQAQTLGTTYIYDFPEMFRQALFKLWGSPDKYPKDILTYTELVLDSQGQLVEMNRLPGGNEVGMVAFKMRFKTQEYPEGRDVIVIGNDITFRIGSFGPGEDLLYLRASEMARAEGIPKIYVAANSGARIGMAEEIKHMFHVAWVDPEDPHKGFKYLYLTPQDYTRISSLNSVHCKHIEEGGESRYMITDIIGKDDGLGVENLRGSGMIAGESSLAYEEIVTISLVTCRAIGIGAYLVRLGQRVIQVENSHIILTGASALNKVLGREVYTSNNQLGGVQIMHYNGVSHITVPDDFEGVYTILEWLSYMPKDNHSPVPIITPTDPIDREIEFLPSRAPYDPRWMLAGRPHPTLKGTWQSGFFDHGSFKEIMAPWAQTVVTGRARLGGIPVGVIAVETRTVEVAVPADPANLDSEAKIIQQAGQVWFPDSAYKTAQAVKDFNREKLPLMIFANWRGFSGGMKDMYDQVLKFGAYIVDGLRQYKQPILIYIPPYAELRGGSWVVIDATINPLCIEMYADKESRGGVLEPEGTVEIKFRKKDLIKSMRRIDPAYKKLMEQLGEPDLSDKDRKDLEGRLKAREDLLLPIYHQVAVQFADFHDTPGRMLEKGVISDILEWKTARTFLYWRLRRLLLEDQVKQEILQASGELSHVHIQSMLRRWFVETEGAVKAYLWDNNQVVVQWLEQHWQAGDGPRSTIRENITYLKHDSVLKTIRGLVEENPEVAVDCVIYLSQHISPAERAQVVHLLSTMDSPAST
# human serum albumin (HSA), sequence (P02768 25-609): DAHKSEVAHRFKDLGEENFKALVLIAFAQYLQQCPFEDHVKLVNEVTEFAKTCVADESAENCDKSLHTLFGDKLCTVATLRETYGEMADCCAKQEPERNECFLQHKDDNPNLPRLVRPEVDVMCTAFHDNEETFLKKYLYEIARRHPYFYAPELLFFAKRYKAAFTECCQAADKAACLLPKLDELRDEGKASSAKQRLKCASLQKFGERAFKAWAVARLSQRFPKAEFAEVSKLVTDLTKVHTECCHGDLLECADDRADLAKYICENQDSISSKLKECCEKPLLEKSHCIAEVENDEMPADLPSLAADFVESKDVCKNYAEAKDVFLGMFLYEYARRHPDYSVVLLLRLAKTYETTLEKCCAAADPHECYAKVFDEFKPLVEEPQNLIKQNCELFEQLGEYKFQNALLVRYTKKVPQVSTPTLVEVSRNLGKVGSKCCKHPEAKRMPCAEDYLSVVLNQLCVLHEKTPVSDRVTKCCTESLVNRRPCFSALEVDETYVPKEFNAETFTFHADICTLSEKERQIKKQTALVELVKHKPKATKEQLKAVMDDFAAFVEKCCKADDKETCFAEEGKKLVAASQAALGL
structure (smiles),measurement,setting,value
Cc1cc(Cl)cc(C)c1C1=C(O)C2(CC=C(F)CC2)NC1=O (stereo not shown) [Example I-1-a-13],effect (kill of aphids),[1],100%
same,effect (kill of spider mites),[2]; 100 g/ha,90%
same,effect (kill of beetle larvae),[3],100%
"Cc1ccc(Br)cc1C1=C(O)C2(CCC(F)(F)CC2)NC1=O [Example I-1-a-14, 3-(5-Bromo-2-methylphenyl)-8,8-difluoro-4-hydroxy-1-azaspiro[4.5]dec-3-en-2-one]",pest or weed control at 500 g/ha,"[1]; Myzus persicae, 144 h",100%
CCc1cc(C)cc(C)c1C1=C(OC(=O)C(C)C)C2(CCC(F)(F)CC2)NC1=O [Example I-1-b-1],pest or weed control at 500 g/ha,"[1]; Myzus persicae, 144 h",100%
same,pest or weed control at 100 g/ha,[2]; [15],100%
CCOC(=O)OC1=C(c2c(C)cc(C)cc2CC)C(=O)NC12CCC(F)(F)CC2 [Example I-1-c-1],pest or weed control at 500 g/ha,"[1]; Myzus persicae, 144 h",90%
same,pest or weed control at 100 g/ha,[2]; [15],100%
Cc1cc(C)c(C2=C(O)C3(CCC(F)(F)CC3)OC2=O)cc1C [Example I-2-a-1],pest or weed control at 500 g/ha,"[1]; Myzus persicae, 144 h",100%
Cc1ccc(-c2ccc(F)cc2)c(C)c1C1=C(O)C2(CCC(F)(F)CC2)OC1=O [Example I-2-a-2],effect (kill of caterpillars),[4],100%
same,effect (kill of aphids),[1],100%
same,effect (kill of spider mites),[2]; 500 g/ha,100%
same,effect (kill of beetle larvae),[3],100%
Cc1ccc(-c2ccc(Cl)cc2)cc1C1=C(O)C2(CCC(F)(F)CC2)OC1=O [Example I-2-a-3],effect (kill of caterpillars),[4],100%
same,effect (kill of aphids),[1],90%
same,effect (kill of beetle larvae),[3],100%
Cc1cc(C)c(C2=C(O)C3(CCC(F)(F)CC3)OC2=O)c(C)c1 [Example I-2-a-4],effect (kill of aphids),[1],100%
same,effect (kill of beetle larvae),[3],100%
Cc1cc(C)c(C2=C(OC(=O)C(C)C)C3(CCC(F)(F)CC3)OC2=O)cc1C [Example I-2-b-1],effect (kill of caterpillars),[4],83%
same,pest or weed control at 500 g/ha,"[1]; Myzus persicae, 144 h",100%
"Cc1ccc(-c2ccc(Cl)c(F)c2)cc1C1=C(O)[C@]2(CC[C@H](C(F)(F)F)CC2)NC1=O [V.1-a, (5s,8s)-3-(4′-Chloro-3′-fluoro-4-methylbiphenyl-3-yl)-4-hydroxy-8-(trifluoromethyl)-1-azaspiro[4.5]dec-3-en-2-one, reference compound]",pIC50,[5],7.17 and 7.23
same,Selectivity ACC1 vs. ACC2 (mean of the individual measurements ± standard deviation),[6],9.4 ± 0.8
same,Ratio of IC50s ACC2/ACC1 (respective measurement),"[6]; pairwise, same dilution series",8.6 and 10.3
same,pIC50,[7],6.61
same,pIC50,[8],6.40
same,pIC50,[9],6.24
same,pIC50,[10],7.52
same,chromatographic logP,[11],2.55
same,logMA,[12],"2.55 (2.4-2.7, n = 2)"
same,pIC50,[13],6.24 and 6.21
same,pKd,[14],5.84
"Cc1ccc(-c2ccc(F)c(F)c2)cc1C1=C(O)C2(CCCCC2)NC1=O [prior art WO 2008/067911 Table 1, reference compound]",inhibition at 20 g/ha,"[1]; Myzus persicae, 144 h, read-out: % activity MYZUPE",0%
same,inhibition at 20 g/ha,"[2]; Tetranychus urticae, 144 h, read-out: % activity TETRUR",0%
same,inhibition at 20 g/ha,"[3]; Phaedon cochleariae, 168 h, read-out: % activity PHAECO",0%
